Assay results from ChEMBL document CHEMBL1649511, “Reduction of amphotericin B-induced renal tubular apoptosis by N-acetylcysteine” (2009).

Assays:
Assay type in all cases: functional
Design in all cases: scale not given: the % may be the effect or the level left
Conditions in all cases: route intraperitoneal
[1] = system: Rattus norvegicus; test: Inhibition of amphotericin B-induced renal tubular apoptosis in Sprague-Dawley rat assessed as apoptotic index at 120 mg/kg, ip BID measured post last dose
[2] = system: Rattus norvegicus; test: Inhibition of amphotericin B-induced renal tubular apoptosis in Sprague-Dawley rat assessed as apoptotic index at 30 mg/kg, ip BID measured post last dose
[3] = system: Rattus norvegicus; test: Inhibition of amphotericin B-induced renal tubular apoptosis in Sprague-Dawley rat assessed as apoptotic index at 60 mg/kg, ip BID measured post last dose

CC(=O)N[C@@H](CS)C(=O)O [ACETYLCYSTEINE]
Activity [1]: 23.5%
Activity [2]: 27.4%
Activity [3]: 23.6%
